# Assays:
# [1] = tested on: human lung cancer cell line NCI-H460; test: Cell proliferation inhibitory activity (Cell Counting Kit-8), lung cancer NCI-H460; type: cell-based; conditions: 96 h, NCI-H460, 4 days, read-out: Cell proliferation inhibitory activity (% Inhibition at 2.5 μM) Non-small cell lung cancer (NCI-H460)
# Procedure, shortened: (§1)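 PC3 (3000 cells/well) or NCI-H460 (1000 cells/well) exposed to compound for 4 days at 37 °C in CO2. CCK-8 absorbance at 450 nm (reference 615 nm); percent proliferation inhibition calculated at 2.5 µM.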
# human PI3K(p110α/p85α) = human PI3K(p110α/p85α) (Homo sapiens, UniProt P42336); test: Measurement of PI3K inhibitory activity (AlphaScreen GST Detection Kit); type: biochemical; conditions: 10 μM ATP, 4 μM PI(4,5)P2, read-out: Enzyme inhibitory activity (IC50, μM) PI3K α
# Procedure, shortened: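 Baculovirus-expressed human p110α/p85α was preincubated with compound for 20 min at room temperature, then reacted with 4 μM PI(4,5)P2 and 10 μM ATP (pH 7.5, 2.5 mM MgCl2) for 15 min at 37 °C. PIP3 product was detected by AlphaScreen competition of GST-GRP1 with biotin-PI(3,4,5)P3 after 1 h at room temperature.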
# [2] = tested on: human colon cancer cell line HCT116; test: Cell proliferation inhibitory activity (Cell Counting Kit-8), colon cancer HCT116; type: cell-based; conditions: HCT-116, 96 h, HCT116, 4 days
# Procedure, shortened: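 HCT116 cells (2000/well) were exposed to compounds for 4 days at 37 °C under CO2. Viability was then read with CCK-8 as absorbance at 450 nm (reference 615 nm).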
# [3] = tested on: human prostate cancer cell line PC3; test: Cell proliferation inhibitory activity (Cell Counting Kit-8), prostate cancer PC3; type: cell-based; conditions: 96 h, PC3, 4 days
# Procedure, shortened: as §1
# Chain of human PI3K(p110α/p85α) (P42336 whole entry): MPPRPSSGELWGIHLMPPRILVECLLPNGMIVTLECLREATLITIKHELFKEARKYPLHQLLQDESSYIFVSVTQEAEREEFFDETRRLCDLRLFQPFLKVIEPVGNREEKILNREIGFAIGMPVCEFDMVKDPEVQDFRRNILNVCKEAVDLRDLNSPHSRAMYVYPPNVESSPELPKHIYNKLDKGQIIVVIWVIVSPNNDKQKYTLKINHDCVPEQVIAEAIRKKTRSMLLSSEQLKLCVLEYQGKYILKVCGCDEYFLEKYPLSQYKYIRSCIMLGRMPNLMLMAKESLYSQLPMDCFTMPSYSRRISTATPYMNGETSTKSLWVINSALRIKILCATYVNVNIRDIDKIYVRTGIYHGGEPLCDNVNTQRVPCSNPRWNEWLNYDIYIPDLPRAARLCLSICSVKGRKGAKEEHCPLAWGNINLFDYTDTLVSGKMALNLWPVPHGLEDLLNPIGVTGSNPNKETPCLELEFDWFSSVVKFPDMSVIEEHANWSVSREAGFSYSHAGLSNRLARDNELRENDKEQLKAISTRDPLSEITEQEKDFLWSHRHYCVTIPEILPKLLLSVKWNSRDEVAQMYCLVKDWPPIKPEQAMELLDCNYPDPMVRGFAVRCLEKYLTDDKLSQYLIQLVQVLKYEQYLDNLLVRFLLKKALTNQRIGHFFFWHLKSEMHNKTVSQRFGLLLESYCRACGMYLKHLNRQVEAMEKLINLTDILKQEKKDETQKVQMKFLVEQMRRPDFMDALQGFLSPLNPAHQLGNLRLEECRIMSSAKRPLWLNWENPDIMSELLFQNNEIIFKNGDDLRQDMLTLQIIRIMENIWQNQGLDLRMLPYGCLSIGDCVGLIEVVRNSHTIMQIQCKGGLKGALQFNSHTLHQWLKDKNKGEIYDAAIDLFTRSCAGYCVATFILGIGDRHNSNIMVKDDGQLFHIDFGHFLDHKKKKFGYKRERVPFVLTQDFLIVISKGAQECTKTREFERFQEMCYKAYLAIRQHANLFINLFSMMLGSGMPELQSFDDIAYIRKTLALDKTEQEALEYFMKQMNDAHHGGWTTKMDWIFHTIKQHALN
# Chain of human PI3K(p110α/p85α) (P27986 whole entry partner): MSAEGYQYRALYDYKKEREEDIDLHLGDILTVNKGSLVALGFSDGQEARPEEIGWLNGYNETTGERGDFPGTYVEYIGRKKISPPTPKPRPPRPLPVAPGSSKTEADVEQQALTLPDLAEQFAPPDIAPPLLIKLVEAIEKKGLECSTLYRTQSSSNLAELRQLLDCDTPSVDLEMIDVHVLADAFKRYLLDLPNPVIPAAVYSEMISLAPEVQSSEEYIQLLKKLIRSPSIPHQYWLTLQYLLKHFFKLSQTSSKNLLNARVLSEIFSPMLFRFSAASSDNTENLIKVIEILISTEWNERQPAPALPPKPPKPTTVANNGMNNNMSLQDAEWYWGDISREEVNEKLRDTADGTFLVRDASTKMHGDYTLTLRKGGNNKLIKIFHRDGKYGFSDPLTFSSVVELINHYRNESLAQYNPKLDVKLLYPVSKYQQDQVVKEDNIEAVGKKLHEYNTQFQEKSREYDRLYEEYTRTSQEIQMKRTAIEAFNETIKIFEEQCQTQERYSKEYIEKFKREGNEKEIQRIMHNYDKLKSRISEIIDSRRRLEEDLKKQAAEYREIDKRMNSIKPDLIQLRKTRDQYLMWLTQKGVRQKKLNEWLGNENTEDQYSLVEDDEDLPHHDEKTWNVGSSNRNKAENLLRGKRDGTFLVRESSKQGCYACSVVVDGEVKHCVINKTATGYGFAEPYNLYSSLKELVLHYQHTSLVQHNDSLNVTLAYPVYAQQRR
Structure (SMILES),IC50 (human PI3K(p110α/p85α)),inhibition at 2.5 µM [1],inhibition at 2.5 µM [2],inhibition at 2.5 µM [3]
"CN(CCN1CCOCC1)C(=O)c1ccc(N2CCc3c(-c4cnc(N)nc4)nc(N4CCOCC4)nc32)cc1 [Example D-139, 4-[4-(2-Amino-pyrimidin-5-yl)-2-morpholin-4-yl-5,6-dihydro-pyrrolo[2,3-d]pyrimidin-7-yl]-N-methyl-N-(2-morpholin-4-yl-ethyl)-benzamide]",0.009 µM,72%,90%,89%
"Nc1ncc(-c2nc(N3CCOCC3)nc3c2CCN3c2ccc(CC(=O)N3CCNCC3)cc2)cn1 [Example D-172, 2-{4-[4-(2-Amino-pyrimidin-5-yl)-2-morpholin-4-yl-5,6-dihydro-pyrrolo[2,3-d]pyrimidin-7-yl]-phenyl}-1-piperazin-1-yl-ethanone]",0.008 µM,79%,86%,86%
"Cc1ccc(N2CCOCC2)cc1NC(=O)N1CCc2c(-c3cnc(N)nc3)nc(N3CCOCC3)nc21 [Example D-237, 4-(2-Amino-pyrimidin-5-yl)-2-morpholin-4-yl-5,6-dihydro-pyrrolo[2,3-d]pyrimidine-7-carboxylic acid (2-methyl-5-morpholin-4-yl-phenyl)-amide]",0.005 µM,84%,95%,97%
"CCN1CCN(c2ccc(NC(=O)N3CCc4c(-c5cnc(N)nc5)nc(N5CCOCC5)nc43)c(C)c2)CC1 [Example D-242, 4-(2-Amino-pyrimidin-5-yl)-2-morpholin-4-yl-5,6-dihydro-pyrrolo[2,3-d]pyrimidine-7-carboxylic acid [4-(4-ethyl-piperazin-1-yl)-2-methyl-phenyl]-amide]",0.01 µM,55%,99%,100%
"Nc1ncc(-c2nc(N3CCOCC3)nc3c2CCN3C(=O)Nc2c(F)cc(N3CCOCC3)cc2F)cn1 [Example D-273, 4-(2-Amino-pyrimidin-5-yl)-2-morpholin-4-yl-5,6-dihydro-pyrrolo[2,3-d]pyrimidine-7-carboxylic acid (2,6-difluoro-4-morpholin-4-yl-phenyl)-amide]",0.01 µM,67%,83%,79%
"CCN1CCN(c2ccc(C)c(NC(=S)N3CCc4c(-c5cnc(N)nc5)nc(N5CCOCC5)nc43)c2)CC1 [Example D-290, 4-(2-Amino-pyrimidin-5-yl)-2-morpholin-4-yl-5,6-dihydro-pyrrolo[2,3-d]pyrimidine-7-carbothioic acid [5-(4-ethyl-piperazin-1-yl)-2-methyl-phenyl]-amide]",0.009 µM,18%,99%,99%
"CN(Cc1cccnc1)C(=O)c1ccc(N2CCc3c(-c4cnc(N)nc4)nc(N4CCOCC4)nc32)c(F)c1 [Example D-318, 4-[4-(2-Amino-pyrimidin-5-yl)-2-morpholin-4-yl-5,6-dihydro-pyrrolo[2,3-d]pyrimidin-7-yl]-3-fluoro-N-methyl-N-pyridin-3-ylmethyl-benzamide]",0.007 µM,89%,96%,94%
"CCCN1CCN(Cc2ccc(N3CCc4c(-c5cnc(N)nc5)nc(N5CCOCC5)nc43)cc2)CC1 [Example D-327, 5-{2-morpholin-4-yl-7-[4-(4-propyl-piperazin-1-ylmethyl)-phenyl]-6,7-dihydro-5H-pyrrolo[2,3-d]pyrimidin-4-yl}-pyrimidin-2-ylamine]",0.07 µM,85%,78%,79%
"Nc1ncc(-c2nc(N3CCOCC3)nc3c2CCN3c2ccc(CN3CCN(CCF)CC3)cc2)cn1 [Example D-329, 5-(7-{4-[4-(2-fluoroethyl)-piperazin-1-ylmethyl]-phenyl}-2-morpholin-4-yl-6,7-dihydro-5H-pyrrolo[2,3-d]pyrimidin-4-yl)-pyrimidin-2-ylamine]",0.26 µM,81%,73%,65%
"CN1CCN(Cc2ccc3cc(N4CCc5c(-c6cnc(N)nc6)nc(N6CCOCC6)nc54)ccc3c2)CC1 [Example D-333, 5-{7-[6-(4-methyl-piperazin-1-ylmethyl)naphthalen-2-yl]-2-morpholin-4-yl-6,7-dihydro-5H-pyrrolo[2,3-d]pyrimidin-4-yl}-pyrimidin-2-ylamine]",0.16 µM,102%,99%,43%

# Further compounds by falling IC50 (human PI3K(p110α/p85α)), results first:
IC50 (human PI3K(p110α/p85α)),Structure (SMILES),inhibition at 2.5 µM [1],inhibition at 2.5 µM [2],inhibition at 2.5 µM [3]
0.24 µM,"CN1CCN(Cc2ccc(N3CCc4c(-c5cnc(N)nc5)nc(N5CCOCC5)nc43)c(F)c2)CC1 [Example D-326, 5-{7-[2-fluoro-4-(4-methyl-piperazin-1-ylmethyl)-phenyl]-2-morpholin-4-yl-6,7-dihydro-5H-pyrrolo[2,3-d]pyrimidin-4-yl}-pyrimidin-2-ylamine]",83%,72%,81%
0.21 µM,"Nc1ncc(-c2nc(N3CCOCC3)nc3c2CCN3c2ccc(CN3CCN(CCC(F)(F)F)CC3)cc2)cn1 [Example D-332, 5-(2-morpholin-4-yl-7-{4-[4-(3,3,3-trifluoropropyl)piperazin-1-ylmethyl]-phenyl}-6,7-dihydro-5H-pyrrolo[2,3-d]pyrimidin-4-yl}-pyrimidin-2-ylamine]",54%,60%,43%
0.11 µM,"CN1CCN(Cc2ccc(N3CCc4c(-c5cnc(N)nc5)nc(N5CCOCC5)nc43)cc2F)CC1 [Example D-325, 5-{7-[3-fluoro-4-(4-methyl-piperazin-1-ylmethyl)-phenyl]-2-morpholin-4-yl-6,7-dihydro-5H-pyrrolo[2,3-d]pyrimidin-4-yl}-pyrimidin-2-ylamine]",81%,78%,73%
0.06 µM,"CC(C)N1CCN(Cc2ccc(N3CCc4c(-c5cnc(N)nc5)nc(N5CCOCC5)nc43)cc2)CC1 [Example D-328, 5-{7-[4-(4-isopropyl-piperazin-1-ylmethyl)-phenyl]-2-morpholin-4-yl-6,7-dihydro-5H-pyrrolo[2,3-d]pyrimidin-4-yl}-pyrimidin-2-ylamine]",91%,84%,84%
0.011 µM,"CN1CCN(C(=O)c2ccc(NC(=S)N3CCc4c(-c5cnc(N)nc5)nc(N5CCOCC5)nc43)cc2)CC1 [Example D-231, 4-(2-Amino-pyrimidin-5-yl)-2-morpholin-4-yl-5,6-dihydro-pyrrolo[2,3-d]pyrimidine-7-carbothioic acid [4-(4-methyl-piperazine-1-carbonyl)-phenyl]-amide]",71%,33%,37%
0.009 µM,"Nc1ncc(-c2nc(N3CCOCC3)nc3c2CCN3c2ccc(C(=O)N3CCC(N4CCOCC4)CC3)cc2)cn1 [Example D-307, {4-[4-(2-Amino-pyrimidin-5-yl)-2-morpholin-4-yl-5,6-dihydro-pyrrolo[2,3-d]pyrimidin-7-yl]-phenyl}-(4-morpholin-4-yl-piperidin-1-yl)-methanone]",58%,87%,89%
0.008 µM,"Nc1ncc(-c2nc(N3CCOCC3)nc3c2CCN3c2ccc(C(=O)N3CCN(c4ccncc4)CC3)cc2F)cn1 [Example D-286, {4-[4-(2-Amino-pyrimidin-5-yl)-2-morpholin-4-yl-5,6-dihydro-pyrrolo[2,3-d]pyrimidin-7-yl]-3-fluoro-phenyl}-(4-pyridin-4-yl-piperazin-1-yl)-methanone]",97%,94%,89%
0.007 µM,"Cc1ccc(C(=O)N2CCN(C)CC2)cc1NC(=O)N1CCc2c(-c3cnc(N)nc3)nc(N3CCOCC3)nc21 [Example D-223, 4-(2-Amino-pyrimidin-5-yl)-2-morpholin-4-yl-5,6-dihydro-pyrrolo[2,3-d]pyrimidine-7-carboxylic acid [2-methyl-5-(4-methyl-piperazine-1-carbonyl)-phenyl]-amide]",92%,95%,95%
0.007 µM,"Nc1ncc(-c2nc(N3CCOCC3)nc3c2CCN3c2ccc(C(=O)NCc3ccncc3)cc2)cn1 [Example D-264, 4-[4-(2-Amino-pyrimidin-5-yl)-2-morpholin-4-yl-5,6-dihydro-pyrrolo[2,3-d]pyrimidin-7-yl]-N-pyridin-4-ylmethyl-benzamide]",82%,63%,72%
0.006 µM,"Nc1ncc(-c2nc(N3CCOCC3)nc3c2CCN3c2ccc(C(=O)N3CCN(c4ccncc4)CC3)cc2)cn1 [Example D-265, {4-[4-(2-Amino-pyrimidin-5-yl)-2-morpholin-4-yl-5,6-dihydro-pyrrolo[2,3-d]pyrimidin-7-yl]-phenyl}-(4-pyridin-4-yl-piperazin-1-yl)-methanone]",71%,98%,96%
